Results as given in US11401278B2, “Macrocyclic indole derivatives” (The Broad Institute, Inc., priority 2017, dated 2022).
“And” between values parts separate entries of the source, which are not always exact repeats. Identical values can stand only once. Counter-ions that a name gives are not always drawn. Like-named read-outs stand apart in the source and are kept apart here.

Tests used:
[1] = biological target: BCL-XL (Homo sapiens (Human), UniProt Q07817); assay: Protein-protein interaction assay BCL-XL/Bad BH3 peptide (BCL-XL assay, TR-FRET); type: binding; settings: His-BCL-XL / Bad BH3 peptide, median
Experimental: Assay 2 Protein-Protein Interaction Assay: BCL-XL/Bad BH3 Peptide (BCL-XL Assay)
The dose-dependent inhibition by the compounds described in this invention of the interaction between BCL-XL and the BH3 domain of Bad (both human) was determined using a steady state binding competition assay with time-resolved fluorescence energy transfer (TR-FRET) readout. For that purpose BCL-XL (amino acids 1-212, C-terminal fused to a hexahistidine (6×His) tag (SEQ ID 3) and a synthetic Bad BH3-derived peptide of sequence Biotin-PEG2-PEG2-NLWAAQRYGRELRR-Nle-SDEFVDSFKK-amide (SEQ ID 4) served as protein receptor and tracer ligand respectively. The recombinant BCL-XL protein (expressed in E. coli) was purchased from BPS Bioscience (San Diego, Calif., USA). The Bad BH3-derived peptide can be obtained from e.g. Biosyntan (Berlin, Germany).
In the assay 11 different concentrations of each compound (0.1 nM, 0.33 nM, 1.1 nM, 3.8 nM, 13 nM, 44 nM, 0.15 μM, 0.51 μM, 1.7 μM, 5.9 μM and 20 μM) were typically measured as duplicates in the same microtiter plate. For that, 100-fold concentrated DMSO solutions were prepared by serial dilutions (1:3.4) of a 2 mM stock solution in a clear, 384-well microtiter plate (Greiner Bio-One, Frickenhausen, Germany). From there, 50 nl were transferred in a dark test plate (Greiner Bio-One, Frickenhausen, Germany). The assay was initiated by addition of 2 μl of a 2.5-fold concentrated His-BCL-XL solution (usually for a 1 nM end concentration in 5 μl reaction volume) in aqueous assay buffer [50 mM Tris/HCl pH 7, 100 mM sodium chloride (NaCl), 50 mM potassium fluoride (KF), 0.005% Tween-20, 2 mM DTT, 0.1% bovine gamma globulin (BGG)] to the compounds in the assay plate. This was followed by a 10-minute incubation step at 22° C. for pre-equilibration of the putative complex between His-BCL-XL and the compounds. After that, 3 μl of a 1.67-fold concentrated solution (in assay buffer) consisting of Bad BH3-derived peptide (1 nM end concentration) and TR-FRET detection reagents [1.67 nM anti-His-Eu cryptate and 1.67 nM streptavidin-XL665 (both from Cisbio Bioassays, Codolet, France)], were added.
The mixture was incubated in the dark for one hour at 22° C. and then overnight at 4° C. The formation of BCL-XL/Bad complexes was determined by measuring the resonance energy transfer of the anti-His- Eu-cryptate antibody to the streptavidin-XL665 present in the reaction. For that purpose, the fluorescence emission at 620 nm and 665 nm after excitation at 330-350 nm was measured in a TR-FRET measuring instrument, for instance a Rubystar or a Pherastar (both from BMG Lab Technologies, Offenburg, Germany) or a Viewlux (Perkin-Elmer). The ratio of the emission at 665 nm and at 622 nm was used as indicator of the amount of BCL-XL/Bad complexes present.
The resulting data (ratio) were normalized, taking 0% inhibition as the mean value of control measurements (usually 32 data points) where all reagents were included. In this case 50 nl DMSO were used instead of compounds. A 100% inhibition corresponded to the mean value of control measurements (usually 32 data points) where all reagents except BCL-XL were included. IC50 values were determined by regression analysis based on a 4 parameter equation (minimum, maximum, IC50, Hill; Y=Max+(Min−Max)/(1+(X/IC50)^HiII) using the Screener Software (Genedata).

[2] = test system: MV-4-11; assay: Antiproliferation assay (Assay 7), MV-4-11; type: cell-based; settings: CellTiter-Glo, several values per example
Experimental: Assessment of the Anti-Proliferative Effect of Compounds in Different Cell Lines
The impact of compounds on the proliferation of different cell lines was assessed using the CellTiter-Glo® Luminescent Cell Viability reagent from Promega (G7573).
In parallel, cells were plated in a reference (day 0) plate for time zero determination.
Rim wells were excluded. The cells were incubated for 72 hours in a humidified incubator at 37° C. The day 0 plate was measured by adding 30 μL/well of CTG solution (CellTiter-Glo® Luminescent Cell Viability reagent, Promega G7573) to time zero wells in the reference plate followed by a 10 minutes incubation and luminescence reading at 0.1 ms. using the PHERAstar FS microplate reader (BMG Labtech).
After 72 hours incubation, the treated plates were measured in the same way as the day 0 plate mentioned above.

[3] = Homo sapiens, MV4-11, 72 h, read-out: Antiproli MV-4-11 [M] IC50
[4] = 72 hours, read-out: Antiproli MV-4-11 [M] IC50

BCL-XL, sequence (Q07817 other isoform, or with tags, fused parts or gaps): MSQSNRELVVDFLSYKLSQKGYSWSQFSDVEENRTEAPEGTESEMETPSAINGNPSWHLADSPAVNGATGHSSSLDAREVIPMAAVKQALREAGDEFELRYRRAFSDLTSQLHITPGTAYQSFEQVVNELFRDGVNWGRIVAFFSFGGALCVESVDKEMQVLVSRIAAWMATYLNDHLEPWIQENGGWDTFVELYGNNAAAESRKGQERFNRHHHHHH

SMILES	IC50 [1]	IC50 [2, 3]	other results
CCc1c2c(nn1C)CN(CCCN1CCOCC1)S(=O)(=O)CCCn1c(C(=O)O)c(CCCOc3cccc4ccccc34)c3cccc-2c31 (racemic) [Example 15, (rac)-12-Ethyl-11-methyl-8-(3-morpholinopropyl)-1-(3-(naphthalen-1-yloxy)propyl)-4,5,6,8,9,11-hexahydropyrazolo[3′,4′:4,5][1,2,8]thiadiazacycloundecino[6,7,8-hi]indole-2-carboxylic acid 7,7-dioxide 2,2,2-trifluoroacetic acid salt]	> 20 µM	9.37e-06 M	IC50 [2, 4]: 1.04e-05 M
CCc1c2c(nn1C)CN(CCCN1CCCC1)S(=O)(=O)CCCn1c(C(=O)O)c(CCCOc3cccc4ccccc34)c3cccc-2c31 (racemic) [Example 16, (rac)-12-Ethyl-11-methyl-1-(3-(naphthalen-1-yloxy)propyl)-8-(3-(pyrrolidin-1-yl)propyl)-5,6,9,11-tetrahydro-4H,8H-pyrazolo[3′,4′:4,5][1]thia[2,8]diazacycloundecino[6,7,8-hi]indole-2-carboxylic acid 7,7-dioxide]	> 20 µM	> 3.3e-05 M	
CCc1c2c(nn1C)CNS(=O)(=O)CCCn1c(C(=O)O)c(CCCOc3cccc4ccccc34)c3cccc-2c31 (racemic) [Example 17, (rac)-12-Ethyl-11-methyl-1-(3-(naphthalen-1-yloxy)propyl)-4,5,6,8,9,11-hexahydropyrazolo[3′,4′:4,5][1,2,8]thiadiazacycloundecino[6,7,8-hi]indole-2-carboxylic acid 7,7-dioxide]	> 20 µM	1.65e-05 M	
Cc1c2c(nn1C)CNS(=O)(=O)CCCn1c(C(=O)O)c(CCCOc3cccc4cc(F)ccc34)c3ccc(Cl)c-2c31 (single isomer, unassigned; enantiomer 1) [Example 51, 4-chloro-7-{3-[(6-fluoronaphthalen-1-yl)oxy]propyl}-2,3-dimethyl-13,13-dioxo-10,11,12,13,14,15-hexahydro-2H-13lambda^6-pyrazolo[3′,4′:4,5][1,2,8]thiadiazacycloundecino[6,7,8-hi]indole-8-carboxylic acid (Enantiomer 1)]	> 20 µM		
CCc1c2c(nn1C)C(CCC1CCOCC1)N(C)S(=O)(=O)CCCn1c(C(=O)O)c(CCCOc3cccc4cc(F)ccc34)c3ccc(Cl)c-2c31 (single isomer, unassigned; enantiomer 1) [Example 61, (+)-4-chloro-3-ethyl-7-{3-[(6-fluoronaphthalen-1-yl)oxy]propyl}-2,14-dimethyl-15-[2-(oxan-4-yl)ethyl]-13,13-dioxo-10,11,12,13,14,15-hexahydro-2H-13lambda^6-pyrazolo[3′,4′:4,5][1,2,8]thiadiazacycloundecino[6,7,8-hi]indole-8-carboxylic acid (Enantiomer 1)]	> 20 µM		
CCc1c2c(nn1C)CN(CCN1CCOCC1)S(=O)(=O)CCCn1c(C(=O)O)c(CCCOc3cccc4cc(F)ccc34)c3ccc(Cl)c-2c31 [Example 77, (rac)-13-chloro-12-ethyl-1-(3-((6-fluoronaphthalen-1-yl)oxy)propyl)-11-methyl-8-(2-morpholinoethyl)-5,6,9,11-tetrahydro-4H,8H-pyrazolo[3′,4′:4,5][1]thia[2,8]diazacycloundecino[6,7,8-hi]indole-2-carboxylic acid 7,7-dioxide]	> 20 µM		

Continued, in another order:

IC50 [1]	IC50 [2, 3]	SMILES	other results
> 20 µM	1.73e-05 M	Cc1c2c(nn1C)CN(CCN1CCOCC1)S(=O)(=O)CCCn1c(C(=O)O)c(CCCOc3cccc4ccccc34)c3cccc-2c31 (racemic) [Example 1, (rac)-2,3-Dimethyl-14-[2-(morpholin-4-yl)ethyl]-7-{3-[(naphthalen-1-yl)oxy]propyl}-13,13-dioxo-10,11,12,13,14,15-hexahydro-2H-13λ^6-pyrazolo[3′,4′:4,5][1,2,8]thiadiazacycloundecino-[6,7,8-hi]indole-8-carboxylic acid]	IC50 ([2]; 72 hours, listed as 01, read-out: Antiproli MV-4-11 [M] IC50): 1.8e-05 M and 2.38e-05 M
> 20 µM		Cc1c2c(nn1C)CN(C)S(=O)(=O)CCCn1c(C(=O)O)c(CCCOc3cccc4ccccc34)c3ccc(Cl)c-2c31 (racemic) [Example 4, (rac)-4-Chloro-2,3,14-trimethyl-7-{3-[(naphthalen-1-yl)oxy]propyl}-13,13-dioxo-10,11,12,13,14,15-hexahydro-2H-13λ^6-pyrazolo[3′,4′:4,5][1,2,8]thiadiazacycloundecino-[6,7,8-hi]indole-8-carboxylic acid]	IC50 ([2]; 72 hours, listed as 04, read-out: Antiproli MV-4-11 [M] IC50): 1.58e-06 M and 1.47e-06 M and 1.25e-06 M
> 20 µM	1.35e-06 M	CCc1c2c(nn1C)CN(C)S(=O)(=O)CCCn1c(C(=O)O)c(CCCOc3cccc4cc(F)ccc34)c3ccc(F)c-2c31 (racemic) [Example 7, (rac)-12-Ethyl-13-fluoro-1-(3-((6-fluoronaphthalen-1-yl)oxy)propyl)-8,11-dimethyl-5,6,9,11-tetrahydro-4H,8H-pyrazolo[3′,4′:4,5][1]thia[2,8]diazacycloundecino[6,7,8-hi]indole-2-carboxylic acid 7,7-dioxide]	IC50 ([2]; 72 hours, listed as 07, read-out: Antiproli MV-4-11 [M] IC50): 2.15e-06 M
> 20 µM	1.62e-05 M	CCc1c2c(nn1C)CN(CCCN1CCCC1=O)S(=O)(=O)CCCn1c(C(=O)O)c(CCCOc3cccc4ccccc34)c3cccc-2c31 (racemic) [Example 13, (rac)-12-Ethyl-11-methyl-1-(3-(naphthalen-1-yloxy)propyl)-8-(3-(2-oxopyrrolidin-1-yl)propyl)-5,6,9,11-tetrahydro-4H,8H-pyrazolo[3′,4′:4,5][1]thia[2,8]diazacycloundecino[6,7,8-hi]indole-2-carboxylic acid 7,7-dioxide]	
> 20 µM	1.18e-05 M	CCc1c2c(nn1C)CN(CCN1CCCCC1)S(=O)(=O)CCCn1c(C(=O)O)c(CCCOc3cccc4ccccc34)c3cccc-2c31 (racemic) [Example 14, (rac)-12-Ethyl-11-methyl-1-(3-(naphthalen-1-yloxy)propyl)-8-(2-(piperidin-1-yl)ethyl)-4,5,6,8,9,11-hexahydropyrazolo[3′,4′:4,5][1,2,8]thiadiazacycloundecino[6,7,8-hi]indole-2-carboxylic acid 7,7-dioxide 2,2,2-trifluoroacetic acid salt]	IC50 [2, 4]: 1.28e-05 M
19 µM		CCc1c2c(nn1C)C(CCC1CCOCC1)N(C)S(=O)(=O)CCCn1c(C(=O)O)c(CCCOc3cccc4cc(F)ccc34)c3ccc(Cl)c-2c31 (single isomer, unassigned; enantiomer 3) [Example 63, (+)-4-chloro-3-ethyl-7-{3-[(6-fluoronaphthalen-1-yl)oxy]propyl}-2,14-dimethyl-15-[2-(oxan-4-yl)ethyl]-13,13-dioxo-10,11,12,13,14,15-hexahydro-2H-13lambda^6-pyrazolo[3′,4′:4,5][1,2,8]thiadiazacycloundecino[6,7,8-hi]indole-8-carboxylic acid (Enantiomer 3)]	
